Source: article PMC6356581, “Fragment-Based Structural Optimization of a Natural Product Itampolin A as a p38α Inhibitor for Lung Cancer” (Marine Drugs, 2019)

Biological target: MAPK14/p38α (Homo sapiens, UniProt Q16539)
Assay: p38α MAP kinase activity based on the rate of phosphorylation of ATF-2 (TR-FRET)
Format: biochemical
Settings: 90 μM ATP, 0.4 μM GFP-ATF2 (19–96), 1 ng/mL MAPK14/p38α, 1 h RT; read-out: p38α MAP kinase inhibitory activity IC50
Method: 4.3. The p38α MAP Kinase Activity Based on the Rate of Phosphorylation of ATF-2
Kinase reaction buffer composition: 50 mM HEPES (pH 7.5), 10 mM MgCl2, 0.01% BRIJ-35 and 1 mM EGTA. Titration MAPK14/p38α at 90 μM ATP: Prepare MAPK14/p38α in kinase buffer at a concentration of 500 ng/mL. Perform two-fold serial dilution using kinase buffer from 500 ng/mL, 16 dose points. Add 5 μL of the serially diluted MAPK14/p38α into the 384-well plate in triplicate. Prepare 1 mL of 0.8 μM substrate GFP-ATF2 (19–96) and 180 μMATP in kinase reaction buffer. The reaction was carried out by adding 5 μL of the substrate GFP-ATF2 (19–96) and ATP solution into each well of the assay plate. Seal the assay plate and incubate for 1 h at room temperature (RT).
An amount of 4 μL MAPK14/p38α was added to each well of the 384-well assay plate. Incubate for 15 min at RT. Finally, 4 μL substrate GFP-ATF2 (19–96) and ATP in kinase reaction buffer were added to start the reaction. The final concentrations of MAPK14/p38α, Substrate, and ATP were 1 ng/mL, 0.4 μM, and 90 μM, respectively. Incubate for 1 h at RT. Add 10 μL/well of antibody solution. The final concentrations of EDTA and antibody were 10 mM and 2 nM respectively. Incubate for 30 min at RT.

Chain of MAPK14/p38α (Q16539 whole entry): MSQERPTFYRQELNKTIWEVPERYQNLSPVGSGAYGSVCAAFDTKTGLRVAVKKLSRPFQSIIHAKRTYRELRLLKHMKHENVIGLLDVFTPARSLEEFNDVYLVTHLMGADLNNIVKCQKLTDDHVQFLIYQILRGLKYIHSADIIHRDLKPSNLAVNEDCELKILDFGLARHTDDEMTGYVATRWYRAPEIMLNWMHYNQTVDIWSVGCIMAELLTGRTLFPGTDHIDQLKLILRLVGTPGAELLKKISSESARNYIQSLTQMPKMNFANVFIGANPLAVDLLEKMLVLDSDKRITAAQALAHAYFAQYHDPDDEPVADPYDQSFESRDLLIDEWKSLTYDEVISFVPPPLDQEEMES

`COc1c(Br)cc(C[C@@H](NC(=O)Cc2ccc(Br)cc2)C(=O)NCCc2cc(Br)c(O)c(Br)c2)cc1Br` [Compound 4k] and `COc1c(Br)cc(C[C@@H](NC(=O)Cc2ccc(F)cc2)C(=O)NCCc2cc(Br)c(O)c(Br)c2)cc1Br` [Compound 4l] are within 1.5-fold of each other in IC50: 832 ± 12.1 nM for the first, 618 ± 87.7 nM for the second.

`COc1c(Br)cc(CC(NC(=O)Nc2ccc(OCCCN3CCOCC3)cc2)C(=O)NCCc2cc(Br)c(O)c(Br)c2)cc1Br` (stereo not shown) [Compound 5o] and `COc1c(Br)cc(C[C@@H](NC(=O)Cc2ccc(OCCCN3CCOCC3)cc2)C(=O)NCCc2cc(Br)c(O)c(Br)c2)cc1Br` [Compound 4o] are within error of each other in IC50: 134 ± 26.3 nM for the first, 138 ± 13.6 nM for the second.

`COc1ccc(NC(=O)NCCc2cc(Br)c(OC)c(Br)c2)cc1` [Compound 6a] and `CCOc1ccc(NC(=O)NCCc2cc(Br)c(OC)c(Br)c2)cc1` [Compound 6b] are within 1.5-fold of each other in IC50: 263 ± 3.3 nM for the first, 221 ± 4.2 nM for the second.

Going from `COc1c(Br)cc(CCNC(=O)Nc2ccc(C)cc2)cc1Br` [Compound 6n] to `COc1c(Br)cc(CCNC(=O)Nc2ccc(Br)cc2)cc1Br` [Compound 6k], the IC50 falls from 300 ± 11.7 nM to 169 ± 2.6 nM (1.8-fold). The second is the more potent here.

`COc1c(Br)cc(C[C@@H](NC(=O)Cc2ccccc2F)C(=O)NCCc2cc(Br)c(O)c(Br)c2)cc1Br` [Compound 4m] and `COc1c(Br)cc(C[C@@H](NC(=O)Nc2ccccc2F)C(=O)NCCc2cc(Br)c(O)c(Br)c2)cc1Br` [Compound 5m] are within error of each other in IC50: 78.6 ± 59.2 nM for the first, 71.4 ± 19.6 nM for the second.

First: CCCOc1ccc(NC(=O)NCCc2cc(Br)c(OC)c(Br)c2)cc1 [Compound 6c]
Second: COCCOc1ccc(NC(=O)NCCc2cc(Br)c(OC)c(Br)c2)cc1 [Compound 6g]
The IC50 of the first is 60-fold higher: 701 ± 7.4 nM for the first, 11.7 ± 3 nM for the second. The second is the more potent here.

First: CCOc1ccc(CC(=O)N[C@H](Cc2cc(Br)c(OC)c(Br)c2)C(=O)NCCc2cc(Br)c(O)c(Br)c2)cc1 [Compound 4b]
Second: CCCCOc1ccc(CC(=O)N[C@H](Cc2cc(Br)c(OC)c(Br)c2)C(=O)NCCc2cc(Br)c(O)c(Br)c2)cc1 [Compound 4d]
The IC50 of the first is 1.6-fold lower: 492 ± 46.2 nM for the first, 806 ± 139 nM for the second.

First: COc1c(Br)cc(C[C@@H](NC(=O)Nc2cccc(Cl)c2)C(=O)NCCc2cc(Br)c(O)c(Br)c2)cc1Br [Compound 5i]
Second: COc1c(Br)cc(C[C@@H](NC(=O)Cc2cccc(Cl)c2)C(=O)NCCc2cc(Br)c(O)c(Br)c2)cc1Br [Compound 4i]
The IC50 of the first is 1.8-fold lower: 51.3 ± 4.5 nM for the first, 91 ± 11.1 nM for the second.

Compared with `CCC(C)Oc1ccc(NC(=O)NCCc2cc(Br)c(OC)c(Br)c2)cc1` (stereo not shown) [Compound 6e], `COc1c(Br)cc(CCNC(=O)Nc2ccc(OC(C)C)cc2)cc1Br` [Compound 6h] is 2.8-fold lower in IC50: 920.3 ± 6.1 nM for the first, 329 ± 44.2 nM for the second.

First: COc1c(Br)cc(C[C@@H](NC(=O)Nc2ccc(F)cc2)C(=O)NCCc2cc(Br)c(O)c(Br)c2)cc1Br [Compound 5l]
Second: COc1c(Br)cc(C[C@@H](NC(=O)Nc2ccc(C)cc2)C(=O)NCCc2cc(Br)c(O)c(Br)c2)cc1Br [Compound 5n]
The IC50 of the first is 2.5-fold lower: 110 ± 18.8 nM for the first, 279 ± 28.9 nM for the second. The first is the more potent here.

Going from `COc1ccc(NC(=O)N[C@H](Cc2cc(Br)c(OC)c(Br)c2)C(=O)NCCc2cc(Br)c(O)c(Br)c2)cc1` [Compound 5a] to `CCOc1ccc(NC(=O)N[C@H](Cc2cc(Br)c(OC)c(Br)c2)C(=O)NCCc2cc(Br)c(O)c(Br)c2)cc1` [Compound 5b], the IC50 rises from 112 ± 12 nM to 346 ± 18.4 nM (3.1-fold). The first is the more potent here.

First: COc1c(Br)cc(CCNC(=O)Nc2ccccc2F)cc1Br [Compound 6m]
Second: COc1c(Br)cc(CCNC(=O)Nc2ccccc2Cl)cc1Br [Compound 6j]
The IC50 of the first is 5.2-fold lower: 13.6 ± 3 nM for the first, 71.2 ± 4.5 nM for the second.

`COc1c(Br)cc(CCNC(=O)Nc2ccc(F)cc2)cc1Br` [Compound 6l] and `COc1c(Br)cc(CCNC(=O)Nc2cccc(Cl)c2)cc1Br` [Compound 6i] are within error of each other in IC50: 21.5 ± 4.6 nM for the first, 17.5 ± 2.4 nM for the second.

Compared with `CCCCOc1ccc(NC(=O)N[C@H](Cc2cc(Br)c(OC)c(Br)c2)C(=O)NCCc2cc(Br)c(O)c(Br)c2)cc1` [Compound 5d], `CCCOc1ccc(NC(=O)N[C@H](Cc2cc(Br)c(OC)c(Br)c2)C(=O)NCCc2cc(Br)c(O)c(Br)c2)cc1` [Compound 5c] is 4.1-fold lower in IC50: 691 ± 38.4 nM for the first, 167 ± 23.9 nM for the second. The second is the more potent here.

First: COc1c(Br)cc(C[C@@H](NC(=O)Nc2ccc(Br)cc2)C(=O)NCCc2cc(Br)c(O)c(Br)c2)cc1Br [Compound 5k]
Second: COc1c(Br)cc(C[C@@H](NC(=O)Nc2ccccc2Cl)C(=O)NCCc2cc(Br)c(O)c(Br)c2)cc1Br [Compound 5j]
The IC50 of the first is 5-fold lower: 90.3 ± 2.7 nM for the first, 448 ± 64.1 nM for the second. The first is the more potent here.

`COc1c(Br)cc(CCNC(=O)Nc2ccc(OCCCN3CCOCC3)cc2)cc1Br` [Compound 6o] gave an IC50 of 7.9 ± 1.7 nM.

Tested on: A549 cells
Assay: MTT cell proliferation inhibition assay
Format: cell-based
Settings: Homo sapiens; A549, 48 h incubation
Method: 4.4. MTT Assay The A549 cell lines were cultured using DMEM and RPMI, respectively, in standard humidified incubation conditions at 37 °C in 5% CO2. Then, the cancer cells (1000/well) were placed on 96-well plates in triplicate. After 24 h incubation, cells were treated with a series of concentrations of the brominated tyrosine derivatives (1, 10, 20, 80 μmol/L). The positive control contained the same concentrations of BIRB-796, and the negative control received the same volume of DMSO. After 48h incubation, cells were stained with 5% MTT, and the optical density was recorded at an absorbance wavelength of 570 nm.

Compound `COc1c(Br)cc(CCNC(=O)Nc2ccc(OCCCN3CCOCC3)cc2)cc1Br` [Compound 6o] has an IC50 of 660 nM.

Tested on: non-small cell lung cancer
Assay: not given
Design: method as in doi:10.2174/1570179414666170215092631
Settings: previous study; cited from earlier work

For `COc1c(Br)cc(C[C@@H](NC(=O)Cc2ccc(OCCCNC(C)=O)cc2)C(=O)NCCc2cc(Br)c(O)c(Br)c2)cc1Br` [Itampolin A], the “antitumor activity against non-small cell lung cancer” value is given as “potent concentration-dependent antitumor activity”.

Tested on: non-small cell lung A549 cells
Assay: not given
Design: method as in doi:10.2174/1570179414666170215092631
Settings: previous study; cited from earlier work

For `COc1c(Br)cc(C[C@@H](NC(=O)Cc2ccc(OCCCNC(C)=O)cc2)C(=O)NCCc2cc(Br)c(O)c(Br)c2)cc1Br` [(−)-itampolin A], the “inhibitory activity against non-small cell lung A549 cells” value is listed as “significant inhibitory activity”.
